Assay type in all cases: cell-based, mice
The test system of one assay is NO. The experiment in a line: NO production by LPS-stimulated macrophages. The settings on record: 10 μM, 72 h.
A further assay relates to IL-6. The experiment in a line: IL-6 production by LPS-stimulated macrophages. The settings on record: 10 μM, 72 h. The method, then:
(§1) Peritoneal macrophage or splenocytes (lymphocytes and macrophage) were harvested from donor mice using standard techniques. Cells were placed in culture and stimulated with either LPS (10 μg/mL) or concanavalin A 5 μg/mL (Sigma Chemical Co., St Louis, Mo.) in RPMI-1640 medium supplemented with antibiotics, […] 2-mercaptoethanol, 10 mm HEPES buffer and 10% fetal calf serum (FCS) (see Holan et al., 1985) to stimulate macrophage and T-cells respectively. Compounds were added from DMSO stock solutions to a final concentration of 50 μM or less with DMSO not exceeding 1% of total volume. After 72 h, cell supernatant was recovered and the cytokine levels were estimated by ELISA. The effect of compounds on cytokine production was recorded as follows: […]

Assay [1] has as its system IL-10. Kind of assay: IL-10 production by LPS-stimulated murine peritoneal macrophage (ELISA). The settings on record: for IL-10 by ELISA, % of solvent treated control: murine peritoneal macrophage; for IL-10 (LPS, Macrophages), amount of cytokine: 10 μM, 72 h. The method, then: as §1
(In general: An ELISA detects its analyte on a solid surface through an enzyme-linked reagent.)

In another assay the test system is IL-2. Kind of assay: IL-2 production by ConA-stimulated T cells. The settings on record: 10 μM, 72 h. The method, then:
as §1

Another assay concerns IFN-g. Kind of assay: IFN-g production by ConA-stimulated T cells. The settings on record: 10 μM, 72 h. The method, then: as §1
For assay [2], the system named is IL-10. Kind of assay: IL-10 production by ConA-stimulated T cells. The settings on record: 10 μM, 72 h. How it is done: as §1
The next assay deals with T cells. The experiment in a line: Proliferation of Con A-stimulated T cells. The settings on record: 10 μM. How it is done: as §1
In a further assay the test system is B cells. The experiment in a line: Proliferation of LPS-stimulated B cells. The settings on record: 10 μM.
The test system of a further assay is IL-4. The experiment in a line: IL-4 production, Con A, spleen. The settings on record: 5 μM, 72 h. The method, then:
as §1

`CC[C@H]1OC(=O)[C@H](C)[C@@H](O[C@H]2C[C@@](C)(OC)[C@@H](O)[C@H](C)O2)[C@H](C)[C@@H](O[C@@H]2O[C@H](C)C[C@H](N(C)CCCC(=O)OCC(O)CSc3nc(-c4ccc(F)cc4)c(-c4ccnc(NC5CCOCC5)c4)[nH]3)[C@H]2O)[C@](C)(O)C[C@@H](C)CN(C)[C@H](C)[C@@H](O)[C@]1(C)O` (stereo partly shown) [Compound 43b]: the “NO (LPS, Macrophages), % of control treated with solvent alone” value (“NO (LPS, Macrophages), %” for short) in the assay on NO was 31 % of control treated with solvent alone. In addition, the “IL-6 (LPS, Macrophages), amount of cytokine” value (“IL-6 (LPS, Macrophages)” below) with IL-6 is on record as 94 % of control treated with solvent alone. In addition, the figures for the “IL-10 by ELISA, % of solvent treated control” value (“IL-10 by ELISA, %” below) in the assay with IL-10 [1] (2 μM inhibitor in medium), in the assay with IL-10 [1] (10 μM inhibitor in medium) and in the assay on IL-10 [1] (50 μM inhibitor in medium) were 27 % of solvent treated control, −4 % of solvent treated control and −4 % of solvent treated control, respectively. In the assay on IL-10 [1], the “IL-10 (LPS, Macrophages), amount of cytokine” value (shortened to “IL-10 (LPS, Macrophages)”) was −4 % of control treated with solvent alone. Besides, the “IL-2 (ConA, T cells), amount of cytokine” value in the assay with IL-2 is given as 0 % of control treated with solvent alone. Further, the “IFN-g (ConA, T cells), amount of cytokine” value (shortened to “IFN-g (ConA, T cells)”) in the assay on IFN-g is 0 % of control treated with solvent alone. For the same compound, in the assay on IL-10 [2], the “IL-10 (ConA, T cells), amount of cytokine” value (“IL-10 (ConA, T cells)” below) is −2 % of control treated with solvent alone. In addition, the “Proliferation (Con A, T cells)” value in the assay on T cells is recorded as −2 % of control treated with solvent alone. For the same compound, the “Proliferation (LPS, B cells)” value in the assay with B cells was −3 % of control treated with solvent alone.
For `CC[C@H]1OC(=O)[C@H](C)[C@@H](O)[C@H](C)[C@@H](O[C@@H]2O[C@H](C)C[C@H](N(C)CCCC(=O)OCC(O)CSc3nc(-c4ccc(F)cc4)c(-c4ccnc(NC5CCOCC5)c4)[nH]3)[C@H]2O)[C@](C)(O)C[C@@H](C)CN(C)[C@H](C)[C@@H](O)[C@]1(C)O` (stereo partly shown) [Compound 43c], the “NO (LPS, Macrophages), %” value with NO is 82 % of control treated with solvent alone. Besides, in the assay on IL-6, the “IL-6 (LPS, Macrophages)” value is 95 % of control treated with solvent alone. The “IL-10 by ELISA, %” value in the assay on IL-10 [1] (2 μM inhibitor in medium) was 18 % of solvent treated control; with IL-10 [1] (10 μM inhibitor in medium), 7 % of solvent treated control; in the assay with IL-10 [1] (50 μM inhibitor in medium) it was −4 % of solvent treated control. The “IL-10 (LPS, Macrophages)” value with IL-10 [1] is given as 7 % of control treated with solvent alone. Also, in the assay on IL-2, the “IL-2 (ConA, T cells), amount of cytokine” value was 90 % of control treated with solvent alone. For the same compound, the “IFN-g (ConA, T cells)” value with IFN-g is 72 % of control treated with solvent alone. In addition, the “IL-10 (ConA, T cells)” value in the assay with IL-10 [2] was 25 % of control treated with solvent alone. The “Proliferation (Con A, T cells)” value in the assay with T cells was 113 % of control treated with solvent alone. In addition, in the assay on B cells, the “Proliferation (LPS, B cells)” value is listed as 2 % of control treated with solvent alone.
For the compound `CCC(C)Nc1cc(-c2[nH]c(SCC(O)COC(=O)CCCN(C)[C@H]3C[C@@H](C)O[C@@H](O[C@@H]4[C@@H](C)[C@H](O[C@H]5C[C@@](C)(OC)[C@@H](O)[C@H](C)O5)[C@@H](C)C(=O)O[C@H](CC)[C@@](C)(O)[C@H](O)[C@@H](C)N(C)C[C@H](C)C[C@@]4(C)O)[C@@H]3O)nc2-c2ccc(F)cc2)ccn1` (stereo partly shown) [Compound 43d], the “NO (LPS, Macrophages), %” value in the assay with NO was 52 % of control treated with solvent alone. Also, in the assay on IL-6, the “IL-6 (LPS, Macrophages)” value is reported as 95 % of control treated with solvent alone. The “IL-10 by ELISA, %” value is 15 % of solvent treated control in the assay on IL-10 [1] (2 μM inhibitor in medium), −4 % of solvent treated control in the assay on IL-10 [1] (10 μM inhibitor in medium) and −4 % of solvent treated control in the assay with IL-10 [1] (50 μM inhibitor in medium). The “IL-10 (LPS, Macrophages)” value in the assay with IL-10 [1] was −4 % of control treated with solvent alone. The “IL-2 (ConA, T cells), amount of cytokine” value in the assay on IL-2 is given as 0 % of control treated with solvent alone. Further, the “IFN-g (ConA, T cells)” value with IFN-g is given as 3 % of control treated with solvent alone. For the same compound, the “IL-10 (ConA, T cells)” value with IL-10 [2] is −2 % of control treated with solvent alone. For the same compound, in the assay with T cells, the “Proliferation (Con A, T cells)” value is given as −2 % of control treated with solvent alone. Further, the “Proliferation (LPS, B cells)” value in the assay on B cells was −3 % of control treated with solvent alone.
In the case of `CCC(C)Nc1cc(-c2[nH]c(SCC(O)COC(=O)CCCN(C)[C@H]3C[C@@H](C)O[C@@H](O[C@@H]4[C@@H](C)[C@H](O)[C@@H](C)C(=O)O[C@H](CC)[C@@](C)(O)[C@H](O)[C@@H](C)N(C)C[C@H](C)C[C@@]4(C)O)[C@@H]3O)nc2-c2ccc(F)cc2)ccn1` (stereo partly shown) [Compound 43e], the “NO (LPS, Macrophages), %” value in the assay with NO is listed as 1 % of control treated with solvent alone. Further, in the assay with IL-6, the “IL-6 (LPS, Macrophages)” value is 29 % of control treated with solvent alone. The “IL-10 by ELISA, %” value in the assay with IL-10 [1] (2 μM inhibitor in medium), in the assay with IL-10 [1] (10 μM inhibitor in medium) and in the assay with IL-10 [1] (50 μM inhibitor in medium) was −4 % of solvent treated control each time. Also, in the assay with IL-10 [1], the “IL-10 (LPS, Macrophages)” value was −4 % of control treated with solvent alone. For the same compound, the “IL-2 (ConA, T cells), amount of cytokine” value in the assay on IL-2 is recorded as 0 % of control treated with solvent alone. Moreover, the “IFN-g (ConA, T cells)” value in the assay on IFN-g is recorded as 0 % of control treated with solvent alone. The “IL-10 (ConA, T cells)” value in the assay on IL-10 [2] is on record as −2 % of control treated with solvent alone. The “Proliferation (Con A, T cells)” value with T cells is reported as −1 % of control treated with solvent alone. Besides, in the assay on B cells, the “Proliferation (LPS, B cells)” value was −3 % of control treated with solvent alone.
Take `CC[C@H]1OC(=O)[C@H](C)[C@@H](O[C@H]2C[C@@](C)(OC)[C@@H](O)[C@H](C)O2)[C@H](C)[C@@H](O[C@@H]2O[C@H](C)C[C@H](N(C)CCCC(=O)OCC(O)CSc3nc(-c4ccc(F)cc4)c(-c4ccnc(NC(C)C)c4)[nH]3)[C@H]2O)[C@](C)(O)C[C@@H](C)CN(C)[C@H](C)[C@@H](O)[C@]1(C)O` (stereo partly shown) [Compound 43f]: the “NO (LPS, Macrophages), %” value in the assay on NO is 2 % of control treated with solvent alone. Moreover, in the assay on IL-6, the “IL-6 (LPS, Macrophages)” value is given as 30 % of control treated with solvent alone. The “IL-10 by ELISA, %” value with IL-10 [1] (2 μM inhibitor in medium) was −1 % of solvent treated control; in the assay with IL-10 [1] (10 μM inhibitor in medium), −10 % of solvent treated control; in the assay with IL-10 [1] (50 μM inhibitor in medium), 27 % of solvent treated control. In addition, in the assay on IL-10 [1], the “IL-10 (LPS, Macrophages)” value was −10 % of control treated with solvent alone. In the assay on IL-2, the “IL-2 (ConA, T cells), amount of cytokine” value was -1 % of control treated with solvent alone. Further, the “IFN-g (ConA, T cells)” value with IFN-g is 61 % of control treated with solvent alone. The “IL-10 (ConA, T cells)” value in the assay with IL-10 [2] was 0 % of control treated with solvent alone. Further, the “Proliferation (Con A, T cells)” value in the assay with T cells is listed as −8 % of control treated with solvent alone. For the same compound, the “Proliferation (LPS, B cells)” value with B cells is on record as −6 % of control treated with solvent alone.
Consider `CC[C@H]1OC(=O)[C@H](C)[C@@H](O[C@H]2C[C@@](C)(OC)[C@@H](O)[C@H](C)O2)[C@H](C)[C@@H](O[C@@H]2O[C@H](C)C[C@H](N(C)CCCC(=O)OCC(O)COc3cccc(C(=O)c4cnn(-c5ccc(F)cc5)c4N)c3)[C@H]2O)[C@](C)(O)C[C@@H](C)CN(C)[C@H](C)[C@@H](O)[C@]1(C)O` (stereo partly shown) [Compound 43h], for which the “IL-10 by ELISA, %” value is 68 % of solvent treated control with IL-10 [1] (1.25 μM inhibitor in medium), 52 % of solvent treated control in the assay on IL-10 [1] (5 μM inhibitor in medium) and −11 % of solvent treated control in the assay with IL-10 [1] (20 μM inhibitor in medium). In addition, in the assay with IL-4, the “IL-4 (Con A, spleen), amount of cytokine” value is 280 % of control treated with solvent alone.
In the case of `CC[C@H]1OC(=O)[C@H](C)[C@@H](O[C@H]2C[C@@](C)(OC)[C@@H](O)[C@H](C)O2)[C@H](C)[C@@H](O[C@@H]2O[C@H](C)C[C@H](N(C)CCCCCC(=O)OCCSc3nc(-c4ccc(F)cc4)c(-c4ccnc(NC(C)C)c4)[nH]3)[C@H]2O)[C@](C)(O)C[C@@H](C)CN(C)[C@H](C)[C@@H](O)[C@]1(C)O` [Compound 43k], the “NO (LPS, Macrophages), %” value in the assay on NO is listed as −1 % of control treated with solvent alone. The “IL-6 (LPS, Macrophages)” value in the assay on IL-6 is reported as 22 % of control treated with solvent alone. The “IL-10 by ELISA, %” value is recorded as −6 % of solvent treated control in the assay with IL-10 [1] (2 μM inhibitor in medium), −8 % of solvent treated control in the assay on IL-10 [1] (10 μM inhibitor in medium) and −9 % of solvent treated control in the assay on IL-10 [1] (50 μM inhibitor in medium). Moreover, the “IL-10 (LPS, Macrophages)” value in the assay with IL-10 [1] is given as −8 % of control treated with solvent alone. The “IL-2 (ConA, T cells), amount of cytokine” value in the assay with IL-2 is given as 0 % of control treated with solvent alone. Further, the “IFN-g (ConA, T cells)” value in the assay with IFN-g is on record as 0 % of control treated with solvent alone. Further, in the assay on IL-10 [2], the “IL-10 (ConA, T cells)” value is 0 % of control treated with solvent alone. Besides, in the assay on T cells, the “Proliferation (Con A, T cells)” value is −1 % of control treated with solvent alone. In addition, the “Proliferation (LPS, B cells)” value in the assay with B cells is on record as −8 % of control treated with solvent alone.

For the origin of these results see patent US9617221B2, “Kinase modulators for the treatment of cancer” (Synovo GmbH, priority 2010, dated 2017).
